Source: article PMC10913735, “New myxobacteria of the Myxococcaceae clade produce angiolams with antiparasitic activities” (Microbiology Spectrum, 2024)
Like-named read-outs stand apart in the source and are kept apart here.

Columns and labels:
[1] = tested on: Trypanosoma brucei rhodesiense (STIB 900) bloodstream forms; test: In vitro activity against Trypanosoma brucei rhodesiense bloodstream forms; type: cell-based; conditions: for T. b. rhodesiense SI (selectivity index): IC50 in L6 cells divided by IC50 in T. b. rhodesiense; for IC50: Trypanosoma brucei, read-out: T. b. rhodesiense IC50
Experimental: (§1) Based on the antiparasitic bioactivity of the crude extract of MCy12716, angiolams A (1), B (2), C (3), D (4), and F (5) were tested for their in vitro activities against the following protozoan parasites: Trypanosoma brucei rhodesiense (STIB 900) bloodstream forms, Trypanosoma cruzi (Tulahuen C4) amastigotes, Leishmania donovani (MHOM/ET/67/L82) axenic amastigotes, and Plasmodium falciparum (NF54) proliferative erythrocytic stages. In parallel, the cytotoxicity of these compounds in rat skeletal myoblasts (L-6 cells) was determined in order to obtain an initial assessment of their selectivity.
(§2) In vitro activity assays against a panel of protozoal parasites, namely Trypanosoma brucei rhodesiense (STIB 900), Trypanosoma cruzi (Tulahuen C4), Leishmania donovani (MHOM/ET/67/L82), and Plasmodium falciparum (NF54), and cytotoxicity tests against mammalian cells (L6-cell line from rat-skeletal myoblasts) were performed according to previously described methods ([2], [3]). All assays were performed in at least three independent replicates.

[2] = tested on: Trypanosoma cruzi (Tulahuen C4) amastigotes; test: In vitro activity against Trypanosoma cruzi amastigotes; type: cell-based; conditions: for T. cruzi SI (selectivity index): IC50 in L6 cells divided by IC50 in T. cruzi; for IC50: Trypanosoma cruzi, Tulahuen C4, mean of at least three independent replicates ± SD, read-out: T. cruzi IC50
Experimental: as §1, §2

Cytotoxicity in L6 cells = type: cell-based, rat
Experimental: as §1, §2

[3] = tested on: Plasmodium falciparum (NF54) proliferative erythrocytic stages; test: In vitro activity against Plasmodium falciparum erythrocytic stages; type: cell-based; conditions: for P. falciparum SI (selectivity index): IC50 in L6 cells divided by IC50 in P. falciparum; for IC50: Plasmodium falciparum
Experimental: In parallel, the cytotoxicity of these compounds in rat skeletal myoblasts (L-6 cells) was determined in order to obtain an initial assessment of their selectivity.
as §2

[4] = tested on: Leishmania donovani (MHOM/ET/67/L82) axenic amastigotes; test: In vitro activity against Leishmania donovani axenic amastigotes; type: cell-based; conditions: for L. donovani SI (selectivity index): IC50 in L6 cells divided by IC50 in L. donovani; for IC50: Leishmania donovani, MHOM-ET-67/L82 axenic amastigotes, mean of at least three independent replicates ± SD, read-out: L. donovani IC50
Experimental: as §1, §2

[5] = STIB 900, mean of at least three independent replicates ± SD
[6] = NF54, mean of at least three independent replicates ± SD, read-out: P. falciparum IC50
[7] = L6 rat skeletal myoblasts, mean of at least three independent replicates ± SD, read-out: Cytotoxicity in L6 cells IC50

Row | SMILES | T. b. rhodesiense SI (selectivity index) [1] | IC50 [1, 5] | T. cruzi SI (selectivity index) [2] | IC50 [2] | IC50 (Cytotoxicity in L6 cells; rat) | P. falciparum SI (selectivity index) [3] | IC50 [3, 6] | L. donovani SI (selectivity index) [4] | IC50 [4] | further results
1 | C=C/C=C(\C)[C@@H](O)CC[C@@H](C)/C=C/[C@@H]1CC[C@@H](C)C(=O)CC(=O)N[C@@H](C)CCC(=O)[C@@H](C)[C@H](O)[C@@H](C)/C=C(\C)C(=O)O1 [Angiolam A, angiolam A] | 63.2 | 1.5 ± 0.6 µM | 7.3 | 12.9 ± 5.3 µM | 94 ± 23.7 µM | 34.9 | 2700 ± 500 nM | 5.62 | 16.7 ± 7.3 µM | –
2 | C=C/C=C(\C)C(=O)CC[C@@H](C)/C=C/[C@@H]1CC[C@@H](C)C(=O)CC(=O)N[C@@H](C)CCC(=O)[C@@H](C)[C@H](O)[C@@H](C)/C=C(\C)C(=O)O1 [Angiolam B, angiolam B] | 4.4 | 6.3 ± 1 µM | ≤ 2.1 | 30.4 ± 10 µM | 27.8 ± 2 µM | ≥ 30 | 300 ± 100 nM | 4.22 | 6.6 ± 1.9 µM | T. cruzi SI (selectivity index) ([2]; listed as Angiolam B (2)): 0.9; P. falciparum SI (selectivity index) ([3]; listed as Angiolam B (2)): 91.6
3 | CC/C=C(\C)[C@@H](O)CC[C@@H](C)/C=C/[C@@H]1CC[C@@H](C)C(=O)CC(=O)N[C@@H](C)CCC(=O)[C@@H](C)[C@H](O)[C@@H](C)/C=C(\C)C(=O)O1 [Angiolam C, angiolam C] | 6.8 | 4.5 ± 0.4 µM | ≤ 2.1 | 34 ± 11.6 µM | 30.6 ± 2.3 µM | ≥ 30 | 600 ± 400 nM | 1.99 | 15.4 ± 2.3 µM | T. cruzi SI (selectivity index) ([2]; listed as Angiolam C (3)): 0.9; P. falciparum SI (selectivity index) ([3]; listed as Angiolam C (3)): 53.7
4 | C=C/C=C(\C)[C@@H](O)CC[C@@H](C)/C=C/[C@@H]1CC[C@@H](C)C(=O)CC(=O)N[C@@H](C)CCC(=O)[C@@H](C)[C@H](O)[C@@H](C)/C=C(\CC)C(=O)O1 [Angiolam D, angiolam D] | 6.0 | 4.7 ± 1.9 µM | 4.3 | 6.5 ± 2.2 µM | – | – | 800 ± 600 nM | 3.38 | 8.2 ± 4.5 µM | IC50 (Cytotoxicity in L6 cells; [7]): 27.8 ± 3.7 µM; P. falciparum SI (selectivity index) ([3]; listed as Angiolam D (4)): 37.1
5 | C=C/C=C(\C)[C@@H](O)CC[C@@H](C)/C=C/[C@@H]1CC[C@@H](C)C(=O)CC(=O)N[C@@H](C)CCC(=O)[C@@H](C)[C@H](O)[C@@H](CC)/C=C(\CC)C(=O)O1 [Angiolam F, angiolam F] | 2.0 | 25 ± 1.4 µM | ≤ 2.1 | 24.4 ± 5 µM | 49.9 ± 21.6 µM | 37 | 1300 ± 600 nM | 2.83 | 17.6 ± 2.1 µM | T. cruzi SI (selectivity index) ([2]; listed as Angiolam F (5)): 2.1; P. falciparum SI (selectivity index) ([3]; listed as Angiolam F (5)): 37.4
6 | O=C(Cn1ccnc1[N+](=O)[O-])NCc1ccccc1 [Benznidazole, reference compound] | – | – | – | 2.47 µM | – | – | – | – | – | –
7 | CCN(CC)CCCC(C)Nc1ccnc2cc(Cl)ccc12 (centres unmarked) [Chloroquine, reference compound] | – | – | – | – | – | – | – | – | – | IC50 ([3]; NF54, read-out: P. falciparum IC50): 4 nM
8 | Nc1nc(N)nc(Nc2ccc([As]3SCC(CO)S3)cc2)n1 (centres unmarked) [Melarsoprol, reference compound] | – | – | – | – | – | – | – | – | – | IC50 [1]: 0.02 µM
9 | CCCCCCCCCCCCCCCCOP(=O)([O-])OCC[N+](C)(C)C [Miltefosine, reference compound] | – | – | – | – | – | – | – | – | 0.53 µM | –
10 | COc1cc([C@@H]2c3cc4c(cc3[C@H](O)[C@H]3COC(=O)[C@H]23)OCO4)cc(OC)c1OC [Podophyllotoxin, reference compound] | – | – | – | – | – | – | – | – | – | IC50 (Cytotoxicity in L6 cells; [7]): 0.02 µM
